By melting point is commonly meant the temperature of the solid-liquid transition.

In turn, `O=C(c1c[nH]c2nc(Cl)ccc12)N1CCN2CCC1CC2` returned a melting point of 228 to 229 °C.

The values are drawn from patent US7456171B2, “1,4-Diazabicyclo[3.2.2]nonanecarboxamide derivatives, preparation and therapeutic use thereof” (Sanofi-Aventis, priority 2002, dated 2008).
